Source: patent US10633409B2, “Bola-amphiphilic compounds and their uses for biomedical applications” (UNIVERSITE DE BORDEAUX, priority 2014, dated 2020)

Key:
hASCs or D1 = assay: Live/Dead staining (calcein-AM, ethidium homodimer) of cells seeded within gels; type: cell-based; conditions: cells seeded within gel 3% (w/v), at 2 weeks
Description: For all in vitro assays, the hydrogel obtained from compound 6 was prepared at a concentration of 3% (w/v). The compound 6 powder was solubilized in PBS 1× under agitation (900 rpm) at 25° C. during 45 minutes. Then, when the gel was formed, it was left at room temperature, without agitation, during 3 to 4 hours. To allow cell seeding, the gel was heated during 30 minutes at 55° C. Once the liquid solution was obtained, it was rapidly cooled down to 37° C. and thoroughly mixed with 10 μL cell suspension at a concentration of 1 million cells per mL of gel. Finally, the cellularized hydrogel was maintained under agitation (600 rpm), at 25° C. during 45 minutes. After this period, medium was been added (250 μL/tube) and tubes were incubated at controlled atmosphere (5% CO2, 37° C.)
[…] Cells seeded within gels were incubated for 1 h at 37° C. in Hank's medium supplemented with 1.25 μL calcein-AM and 5 μL EthD-1.

[1] = Gelation test (tube inversion); type: physicochemical; conditions: aqueous dispersion 1.5 wt % in Milli-Q water, heated until dissolution (45° C.), cooled to room temperature
Description: The aqueous dispersions (Milli-Q water, 18 MΩ·cm^−1) containing 1.5 wt % of compounds 5 and 6 obtained in examples 1 and 2 were heated until dissolution (at 45° C.) and gradually allowed to cool to room temperature unless otherwise stated.

[2] = test system: rat osteoblastic cells (A) or human ASCs (B); assay: Cytocompatibility by Alamar Blue metabolism in cells grown in compound 6-based gels; type: cell-based; conditions: compound 6-based gel 3% (w/v)
Description: (§1) Mesenchymal stem cells were isolated from human adipose tissue. Human subcutaneous fat was obtained from healthy patients aged 20 to 80 years old who underwent hip surgery in Bordeaux Pellegrin CHU (Bordeaux, France). Fat mass was separated from other tissues, washed with sterilized PBS, finely cut and incubated with 0.1% (w/v) collagenase type I (Worthington, Lakewood, N.J., USA) at 37° C. with gentle agitation for 1 h 30. After filtration and centrifugation, the top liquid layer was removed and the remaining Stromal Vascular Fraction (SVF) was treated for 10 min with ELB (Erythocyte Lysis Buffer; 155 mM NH4Cl (Sigma-Aldrich, St. Louis, Mo., USA), 5.7 mM K2HPO4, 7.4 mM K2HPO4-3H2O, 0.1 mm EDTA (all Sigma-Aldrich)), and then centrifuged. […]
Cell viability was also evaluated by using the Alamar Blue metabolic activity assay. […] After this time, the fluorescence was measured at wavelengths excitation 530 nm and emission 590 nm. Triplicate samples were analyzed for each experiment. […]
Cytocompatibility was determined by monitoring alamar blue metabolism in rat osteoblastic cells (A) or human ASCs (B) grown in compound 6-based gels. […]

[3] = test system: human mesenchymal stem cells (ASCs); assay: Cytotoxicity by MTT test (cell metabolic activity); type: cell-based
Description: as §1
The cytotoxicity of compound 6 was evaluated by the measurement of the cell metabolic activity (MTT assay). […]
MTT assay was performed after 72 h of incubation. […] Results were expressed as a percentage of the metabolic activity of the positive control. Absorbance was measured at a wavelength of 570 nm with background subtraction at 630 nm.
The cytotoxicity of compound 6 was determined by MTT test to measure the metabolic activity of human mesenchymal stem cells (ASCs) 48 hours after incubation with increasing concentrations of compound 6. […]

[4] = Sol-gel transition temperature (Tgel) by rheology; type: physicochemical; conditions: hydrogel 3% w/v, heated from 25 to 60° C. (3° C./min), oscillatory stress 5 Pa, 1 Hz
Description: The determination of gel-sol transition temperature can also be determinated by rheology. The hydrogel (3% product 6 of example 2, w/v) was heated progressively from 25 to 60° C. (3° C./min). The oscillatory stress applied was set to 5 Pa at a constant frequency (1 Hz). The sol-gel transition point was taken as the temperature at which the gel became liquid. This melting temperature is reached at the intersection of the viscoelastic moduli (G′ and G″). This value is of 46° C. which is compatible with the cell culture at the gel state (37° C.).

SMILES	Live/dead staining result (hASCs or D1)	gel formation (solid aggregate mass stable to inversion of the container) [1]	cytocompatibility when used as cell culture medium [2]	concentrations up to which the compound is non toxic ([3]; MTT, human ASCs, tested 5 μM to 5 mM, value printed as approximate)	cytotoxicity (result in words) ([3]; summary of example 12)	sol-gel transition temperature (Tgel), intersection of G′ and G″ [4]
Cc1cn([C@H]2C[C@H](O)[C@@H](Cn3cc(COCCCCCCCCCCCCOCc4cn(C[C@H]5O[C@@H](n6cc(C)c(=O)n(Cc7cn([C@@H]8O[C@H](CO)[C@@H](O)[C@H](O)[C@H]8O)nn7)c6=O)C[C@@H]5O)nn4)nn3)O2)c(=O)n(Cc2cn([C@@H]3O[C@H](CO)[C@@H](O)[C@H](O)[C@H]3O)nn2)c1=O [compound 6]	vast majority of green (living) cells	form gels	god cytocompatibility	≤ 1000 µM	not cytotoxic	46 °C
Cc1cn([C@H]2C[C@H](O)[C@@H](Cn3cc(COCCCCCCCCCCCCO)nn3)O2)c(=O)n(Cc2cn([C@@H]3O[C@H](CO)[C@@H](O)[C@H](O)[C@H]3O)nn2)c1=O [compound 5, 5′-[4-(12-hydroxydodecanyloxy)methyl)-1H-1,2,3-triazol-1-yl]-5′-deoxy-N3-(1-((β-D-glucopyranoside)-1H-1,2,3-triazol-4-yl)methyl thymidine]		form gels				
